The values that follow are results of earlier work, collected in patent EP3733197A1, “ANAEROBIC ANTIOXIDANT COMPOSITION” (Pitcher, Stephen N., priority 2019, dated 2020).

For series [1] the following is noted: in vivo.

On to `CC(=O)N[C@@H](CS)C(=O)O` [NAC, N-acetylcysteine], for which the pregnancy risk entry (in vivo) was “category B”. Further, under “orally administered or inhaled”, the associated adverse effects result was “drowsiness, stomatitis, clamminess, rhinorrhea, and hemoptysis”. Further, in series [1], the half-life result is on record as “approximately 5.6 hours” and the “renally excreted by the body” value is listed as 30%.
